Data from patent US20210386714A1, “DRUG AND GENE THERAPY TO TREAT HIGH MYOPIA AND OTHER OCULAR DISORDERS WITH ENLARGED EYE GLOBES” (City University of Hong Kong, priority 2020, published 2021).
Entries after “also recorded” stand apart in the source; their conditions may differ.

How the values were obtained:
[1] = test system: SREBP2 transcriptional targets and Lrp2 in mouse RPE; experiment: mouse RPE explant model, mRNA level by qPCR; assay type: cell-based
Excerpt: Eyes were quickly removed from the euthanized mouse and dipped in 70% ethanol for decontamination. Under a dissecting stereomicroscope, connective tissues and muscles were carefully removed. After washing twice in PBS, eyes were immersed in warm culture medium (DMEM:F12+10% FBS). Cornea was cutoff using curved scissors, and lens was pulled out gently with tweezers. Or a serrate was cut off to remove iris and cornea. Retina and optic nerve were carefully and completely removed from eye cups. Four radial cuts were made to enable flat-mounting of eye cups. Each eye cup was transferred onto the center of a floating polycarbonate nucleopore filter membrane (Whatman 110406, 0.2 Micron) placed in 6-well plates with the RPE side facing down. The freshly prepared BF175 stock solution was added to the full culture medium to a final BF175 concentration of 12.5 uM. Half of the medium was replaced with fresh medium on the second day. RPE flat-mounts were harvested at 48 hr in explant and processed for RPE isolation and RNA extraction.
Eyecups without retina and optic nerve tissues were dissected as described in the RPE explant section. Two eyes of the same mouse were pooled in one tube and processed together. RPE were incubated in papain solution (Worthington) for 15 minutes. After washing twice in warm medium, RPE were triturated with 600 μl pipette tip gently to dissociate the pigmented RPE cells from sclera. Resuspended cell solution was transferred to a clean tube and spun down at 600 g.
RNAs were converted to cDNA using PrimeScript RT reagent kit with gDNA Eraser (Takara). qPCR was performed using PowerUp Sybr Green Master Mix (Thermofisher) on QuantStudio 3 Real-Time PCR stems (Applied Biosystems). Gapdh was used as the normalizing control. qPCR primers were listed in Supplementary Information.

[2] = test system: eye enlargement induced by Lrp2 knockdown (AAV8-Best1-Lrp2 sh1); experiment: eye globe dimension measurement after subretinal co-injection in Lrp2 knockdown eyes; assay type: in vivo, mouse; conditions: subretinal co-injection with virus at P0, BF175 12.5 uM
Method: Subretinal injection into P0 (P2 for AAV-RK-viruses) neonate eyes was performed as known in the art. Approximately 0.25 μl of viruses in PBS was injected into the subretinal space using a pulled angled glass pipette controlled by a FemtoJet (Eppendorf). BF175 stock solution (25 mM in DMSO) was first mixed with Tween-20 (Sigma-Aldrich) at a ratio of 5:1 in order to help BF175 dissolve in PBS. Then the mixed solution was added to the virus to a final BF175 concentration of 12.5 uM. The vehicle treatment was virus added with the same amount of DMSO with Tween-20. For animals used for qPCR and RNA-seq, both left and right eyes were injected and used for RNA extraction. For animals used for eye size measurement or other phenotype characterizations, only the right eye of the animal was injected, and the fellow left eye was uninjected for with-in animal controls.
CD-1 mice were sacrificed at indicated ages. Eyes were enucleated, and connective tissues and muscles were carefully removed using tweezers and scissors. Eyes were immersed in PBS in 6 cm petri dish and imaged under a Nikon SMZ800N dissection scope with 2× magnification. ED and AL were measured in imageJ and converted to millimeters. OCT

[3] = mouse RPE explant, 12.5 uM BF175 in culture medium, 48 hr

Row | Structure (SMILES) | mRNA level of Hmgcr [1, 3] | mRNA level of Ldlr [1, 3] | mRNA level of Lrp2 (Lrp2 gene expression in RPE) [1, 3] | Lrp2 sh1-induced increase in eye size [2] | Lrp2 gene expression in RPE ([1]; RPE cells, Fatostatin, concentration not given)
1 | CC1(C)OB(c2ccc(/C=C/c3cc(Cl)cc(Cl)c3)cc2)OC1(C)C [BF175] | reduced | reduced | significantly increased | rescued; also recorded: effectively suppressed | –
2 | Br.CCCc1cc(-c2nc(-c3ccc(C)cc3)cs2)ccn1 [Fatostatin, reference compound] | – | – | – | – | increases
